Measured values from patent US6593365B1, “Diflunisal esters and related compounds” (The University of Queensland, priority 1997, dated 2003).
Where “and” joins values, the source holds several entries; their conditions need not be identical. Identical values can stand only once. Like-named read-outs stand apart in the source and are kept apart here.

Legend:
[1] = tested on: human platelet rich plasma; assay: Platelet aggregation induced by arachidonic acid; format: cell-based; details: compound 600 µM, 37° C., arachidonic acid 200 µM
Procedure: Platelet aggregation studies were carried out using a single channel Lumiaggregometer (Chrono-Log Company, Haverton, Pa.) at 37° C. using human platelet-rich and platelet-poor plasma. Platelet-rich plasma (PRP) with a platelet concentration of […] (measured with a Coulter counter) was prepared by centrifuging 3.8% citrated […] (1:9) at 1,500 rpm using a (Beckman) benchtop centrifuge at room temperature for 15 minutes. Platelet-poor plasma (PPP) was prepared by further centrifuging residual blood from platelet-rich plasma at 3,000 rpm for 30 minutes. Platelet-poor plasma was also confirmed b y Coulter counting for platelet content.
Platelet aggregation studies were preceded by pipetting 0.4 mL platelet-rich plasma into a stirred aggregometer tube and calibrate to 90% of recorder. Platelet-poor plasma was set to calibrate at 10% of recorder. Platelet aggregation was initiated by the addition of a arachidonic acid (Sigma) or ADP (Sigma).
10 mM solutions of each compound (TABLE 6) were prepared in 1 mL of normal saline solution (containing 4% BSA) before use. An aliquot (400 μL) of platelet-rich plasma was pipetted into a stirred aggregometer tube at 37° C. and 30 μL of test sample added simultaneously. This mixture was preincubated for varying period (3 to 45 minutes), then arachidonic acid (AA) was added (final conc.=200 μM) to initiate platelet aggregation. If no aggregation occurred, 20 μM ADP was added to confirm the vitality of the platelets (if the platelets are vital, ADP will induce this AA-test sample-plasma mixture to aggregate). This procedure is necessary to investigate whether the non-aggregation phenomenon is due to drug inhibition or simply due to inviable platelets (unable to respond to AA). The degree of aggregation was measure by calculating the area under the turbidimetric response curve (AUC).

[2] = tested on: ischaemic/reperfusion rat livers; assay: Ischaemic/reperfusion injury in rat livers (LDH release, bile production); design: species or system Female Sprague-Dawley rats; details: C is the ED50 molar dose
Procedure: Female Sprague-Dawley rats (220-250 g) were anaesthetised by interperitoneal injection of pentobarbital sodium (60 mg/kg, Boehringer Ingelhein). […] The bile duct was cannulated with a polyethylene tubing (PE-10, I.D. 0.28 mm; Clay Adams, New Jersey) and bile was collected into pre-weighed microcentrifuge tubes at 70 min intervals (in the middle of experiment and the end of experiment). The portal vein was then cannulated using a 16 G intravenous catheter and the liver was perfused via this cannula with 2% BSA Krebs-Henseleit bicarbonate buffer (pH 7.4) and oxygenated using a membrane oxygenator comprising of silastic tubing and ventilated with carbogen (95% O2/5% CO2). The perfusion system used was recirculating and employed a peristaltic pump (Cole-Parmer, Illinois).
Following a 10 min pre-ischaemia perfusion, the perfusion flow was stopped for 30 min at 37° C. with the liver being kept moist. At the end of this ischaemic phase, a known concentration of the aspirin analogue or diflunisal ester's solution (in 2% BSA Krebs-Henseleit buffer) was added into the perfusate prior to the perfusion being resumed for another 100 min. Outflow fractions were collected up to 140 min. A biochemistry autoanalyzer (Hitachi, model 747; Tokyo, Japan) was employed to determine the level of enzyme (LDH) release.
The degree of ischaemic/reperfusion injury was measured by calculating the area under the LDH release ([…]) versus time curve (AUC). […] The efficacy of each compound is expressed in terms of ED50 which represents the molar dose for 50% reduction of LDH release compared to the control. The comparison of bile production between the first stage of experiment (the first 70 min) and the second stage of experiment (the last 70 min) is also used as index of liver function during an experiment.

[3] = tested on: OH. generated from Fenton's reaction; assay: Luminol-dependent chemiluminescence induced by Fenton's reagent; format: biochemical; design: unit of the concentration uncertain; details: F: CL induced by Fenton's reagent, n=3
Procedure: CL was measured with a luminometer (Model 1250; LKB Wallac, Finland) and recorded in millivolts (Cheung et al., 1984, supra).
Fenton's reagent (FeSO4 and H2O2) was used as a standard reaction mixture for the generation of OH. (Lai and Piette, 1979, Tetrahedron Lett. 775-778):
Fe^+++H2O2→Fe^++++OH.+OH (1)
The initial reaction mixture consisted of 20 μL of 3.8 mM FeSO4.7H2O, 20 μL of 5 mg/mL luminol (Sigma), and 2 mL of 1 mM phosphate buffer in a 3 mL polystyrene cuvette. Twenty microlitres of 320 mM H2O2 was added to initiate the Fenton's reaction.
A known concentration of the ethanolic (≲1%) aspirin analogue or diflunisal ester's stock solution was added to the 1 mM phosphate buffer to prepare solutions with a final concentration of 50 μM, 250 μM or 500 μM. Twenty microlitres of these test samples was added onto the cuvette which contained the initial reaction mixture. H2O2 was added to induce CL reaction. The luminol-dependent CL response was recorded in mV by a potentiometric recorder.
(§1) CL measurements were always done in triplicate and Student's t-test used to assess the statistical significance of the difference between measurements.

[4] = tested on: superoxide generated from xanthine oxidase plus xanthine reaction; assay: Xanthine oxidase plus xanthine-induced chemiluminescence; format: biochemical; design: dose or concentration left out as unconfirmed; details: X: CL induced by xanthine oxidase plus xanthine
Procedure: To clarify the role of aspirin analogues and diflunisal esters in free radicals scavenging, the Fenton's reagent was replaced by an artificial superoxide generating system in the CL inhibition studies. This cell-free system consisted of 100 μg/mL of xanthine oxidase (Sigma) plus 0.5 μM xanthine (Sigma) (Rosen and Klebanoff, 1976, J Clin Invest 58 50-60; Cheson et al., 1976, J Clin Invest 58 789-796).
as §1

[5] = In vitro non-enzymatic hydrolysis in Krebs-Henseleit buffer; format: physicochemical; details: for Hydrolysis rate constant (k): pH 7.4, 25° C., n=5; for half-life: pH 7.4, read-out: Half life (t1/2) (converted)
Procedure: These experiments were carried out both in Krebs-Henseleit buffer containing either no protein or 2% w/v BSA (bovine serum albumin, fraction V, Sigma) at pH 7.4 and 25±1° C.
Solutions of the derivatives in Krebs buffer (10 mL) was prepared in siliconised glass tubes. Each solution was sonicated for 5 minutes and centrifuged for 5 minutes (3000 g) at 25° C. to ensure maximum dissolution and to sediment any undissolved precipitate. About 7.5 mL of the supernatant was then transferred to a clean siliconised test tube and a 100 μL aliquot was removed and assayed. […] The rate of non-enzymatic hydrolysis (k) for each derivative was then estimated using the following equation: […]
where C1 is the concentration of the ester at any time (t), and C0 is the concentration of the ester at time zero. The half-life (t½) was determined using the formula: […]

[6] = tested on: in-situ perfused rat liver; assay: In-situ rat liver perfusion bolus studies, moments and dispersion model analysis (Example 3); format: in vitro ADME, Sprague-Dawley rats; details: for CV^2 of reference solute / F (hepatic availability) of reference solute / MTT of reference solute: statistical moments analysis, n=12; for MTTE (mean transit time of blood): MTTE=MTTW/(+1), =0.59
Procedure: Mature female Sprague-Dawley rats were obtained from the University of Queensland Animal Breeding Facility and weighed between 180-270 grams. The animals were given access to a standard laboratory diet prior to experiment. Rats were anaesthetised by interperitoneal injection of pentobarbital sodium (60 mg/kg, Boehringer Ingelhein). […] The bile duct was cannulated with PE10 (Clay Adams, New Jersey). 0.025 gm/L taurocholic acid (Sigma Co., USA.) was dissolved in perfusate to stimulate bile production. The portal vein was then cannulated using a 16 G intravenous catheter and the liver was perfused via this cannula with 2% BSA Krebs-Henseleit bicarbonate buffer (pH 7.4) and oxygenated using a silastic tubing lung ventilated with carbogen (95% O2/5% CO2). The perfusion system used was non-recirculating and employed a peristaltic pump (Cole-Parmer, Illinois).
The animal was placed in a temperature controlled perfusion cabinet at 37° C. Liver viability was assessed by oxygen consumption, bile flow, diflunisal esters' extraction and macroscopic appearance.
Perfusions were made at 30 mL/min in each liver. After a 10 minute perfusion stabilization period, injectate (50 μL) containing Evans Blue (3 mg/mL) and [^3H]-water in a saturated solution of the particular O-acyl diflunisal ester or pregenerated diflunisal (which was injected as parent compound) in 2% BSA Krebs-Henseleit buffer, was injected into the liver with outlet samples collected via a fraction collector over one minute.
Aliquots (100 μL) of pooled perfusate samples were taken for Evans Blue spectrophotometric analysis and [^3H]-water scintillation counting before adjusting pH. These pooled samples were then acidified to pH 2.0 by addition of 1 M HCl and extracted into 2.5 volumes of ether. […] The ether fraction was then removed and reduced to approximately 100 μL by evaporation under air and prepared as before for HPLC analysis. A known concentration of each buffer solution of ester was concurrently extracted and assayed with the perfusate samples to assess the degree of spontaneous hydrolysis occurring over the duration of the extraction procedure. This non-enzymatic hydrolysis was converted for in the analysis. The total recovery of diflunisal esters extracted using this technique was >90%.
The F, MTT and CV^2 for the diflunisal esters (or pregenerated DF) and the reference solutes (EB and [^3H]-water) were determined from the outflow concentration versus time profile using equation (1)-(4), with the assistance of the Moments Calculator 2.2 program for Macintosh computer developed by Robert Purves (Purves RD, 1994, J. Pharm. Sci. 83 202-205). [formula] [formula]
where Q is the perfusate flow rate, D is the dose of diflunisal esters administered. The area under the concentration-time curve (AUC) and the first moment curve (AUMC) were estimated by the trapezoidal rule integration with appropriate modification for tail (Mellick et al., 1996, submitted for publication). [formula]
The moment data was further examined using the dispersion model of hepatic elimination which defines F of an extracted solute by the equation (Roberts et al., 1990, J. Pharmacokin. Biopharm. 18 209-234): [formula]
a={square root over (1+4RNDN)} (6)
DN is the dispersion number which describes the spread of solute residence times in the liver following bolus input and equal half the normalized variance for a non-extracted reference indicator [formula]
RN is the efficiency number which characterises the elimination of solute by the liver and is defined by the equation: [formula]
(Gillette, 1971, Ann. N. Acad. Sci. 179 43-61)), and Q is the perfusate flow rate. If F for a solute and the CV^2 for a non-extracted reference solute (eg. EB) are known, we can solve for “a” using equation (5) and then for “RN” using equation (6).
The dispersion model expressions (Roberts et al., 1990) for MTT and CV^2 are presented in equations (8) and (9). [formula] [formula] […]

[7] = fitting to one-compartment dispersion model, individual curves 1-12 and Mean S.E. (n = 12)
[8] = fitting to one-compartment dispersion model, individual curves 1-12 and Mean S.E. (n = 12), listed as 3H -water

Compound: CCCCCCC(=O)Oc1ccc(-c2ccc(F)cc2F)cc1C(=O)O [Compound C7D, n-heptanoyldiflunisal]
- Platelet Aggregation (% of control) ([1]; preincubation 3 minutes): 97.5 ± 0.9 % of control
- Platelet Aggregation (% of control) ([1]; preincubation 5 minutes): 96.3 ± 1.1 % of control
- Platelet Aggregation (% of control) ([1]; preincubation 8 minutes): 91.4 ± 0.1 % of control
- Platelet Aggregation (% of control) ([1]; preincubation 10 minutes): 91.1 ± 2.1 % of control
- Platelet Aggregation (% of control) ([1]; preincubation 12 minutes): 90.8 ± 0.8 % of control
- Platelet Aggregation (% of control) ([1]; preincubation 15 minutes): 89.7 ± 2.1 % of control
- Platelet Aggregation (% of control) ([1]; preincubation 20 minutes): 77.3 ± 3.1 % of control
- Platelet Aggregation (% of control) ([1]; preincubation 25 minutes): 57.3 ± 0.1 % of control
- Platelet Aggregation (% of control) ([1]; preincubation 45 minutes): 0 % of control
- log 1/C [2]: 4.52
- CL inhibition (%) ([3]; 0.5 (unit uncertain) compound, U = undetectable): 21.3 ± 3.7%
- CL inhibition (%) ([3]; 2.5 (unit uncertain) compound): 57.3 ± 1.9%
- CL inhibition (%) ([3]; 5 (unit uncertain) compound): 87.4 ± 3.4%
- CL inhibition (%) [4]: 0.9 ± 0.1%

Compound: CCCCCCC(=O)Oc1ccccc1C(=O)O [Compound C7SA, n-heptanoylsalicylic acid]
- Hydrolysis rate constant (k) ([5]; Krebs-Henseleit buffer 0% BSA, U = Undetectable): 0.0052 ± 0.0032 hour^1
- Hydrolysis rate constant (k) ([5]; Krebs-Henseleit buffer 2% BSA): 0.0013 ± 0.0005 hour^1
- half-life ([5]; bovine, Krebs-Henseleit buffer with 2% w/v BSA): 22.2 days
- half-life ([5]; protein-free Krebs-Henseleit buffer, Krebs-Henseleit buffer 0% BSA, first half life, t1/2=0.693/k, U = Undetectable): 5.55 days

Compound: Cc1cc(-c2ccc(/N=N/c3ccc4c(S(=O)(=O)O)cc(S(=O)(=O)O)c(N)c4c3O)c(C)c2)ccc1/N=N/c1ccc2c(S(=O)(=O)O)cc(S(=O)(=O)O)c(N)c2c1O [EB]
- CV^2 of reference solute [6]: 1.15±0.11
- F (hepatic availability) of reference solute [6]: 0.95±0.04
- MTT of reference solute [6]: 9.04 ± 0.65 s

Compound: [3H]O[3H] [[^3H]-water]
- MTTE (mean transit time of blood) ([6]; individual curves 1-12 and Mean S.E. (n = 12)): 7.36 ± 0.87 s
- MTTE (mean transit time of blood) ([6]; individual curves 1-12 and Mean S.E. (n = 12), listed as 3H -water): 10.09 s and 9.52 s and 11.67 s and 13.40 s and 5.11 s and 4.99 s and 4.23 s and 4.95 s and 6.39 s and 6.33 s and 5.52 s and 6.08 s
- DN (dispersion number) [6, 7]: 0.29±0.03
- MTTW (mean transit time of the whole liver) [6, 7]: 11.70 ± 1.39 s
- DN (dispersion number) [6, 8]: 0.33 and 0.23 (3×) and 0.27 and 0.36 and 0.22 and 0.58 and 0.24 (2×) and 0.26
- MTTW (mean transit time of the whole liver) [6, 8]: 16.05 s and 15.15 s and 18.56 s and 21.31 s and 8.12 s and 7.94 s and 6.73 s and 7.87 s and 10.16 s and 10.07 s and 8.78 s and 9.66 s
- DN (dispersion number) ([6]; from CV^2 of the moments analysis): 0.36±0.04
- CV^2 of reference solute [6]: 0.71±0.08
- F (hepatic availability) of reference solute [6]: 0.87±0.02
- MTT of reference solute [6]: 14.42 ± 0.79 s
